Assay results published in patent publication EP4467137A1, “TREATMENT OF FRONTOTEMPORAL DEMENTIA OR FRONTOTEMPORAL LOBAR DEMENTIA” (Universidad Autónoma de Madrid, priority 2023, dated 2024).

Columns and labels:
[1] = tested on: mouse cytokines, chemokines, and growth factors; experiment: LPS in vivo model: multiplex assay of brain cytokines and chemokines (Luminex xMAP); conditions: 20 mg·kg^-1 i.p.
Protocol: • Figure 1. Compound 1 reduces the inflammatory response against LPS in vitro. (A) Nitric oxide (NO) production in BV2 cells detected by DAF 24 h after LPS exposure and normalized by cell viability measured by MTT (n = 9). (B) qRT-PCR of TNFα (n = 9) in BV2 cells after 24 h LPS exposure. Sulforaphane (Sfn) was used as a positive control. […] Compound 1 decreases the inflammatory process 4 and 24 hours after LPS administration in vivo. Compound 1 (20 mg·kg^-1) daily was injected i.p. four days before the i.p. LPS (0.5 mg·kg^-1) administration. […] Compound 1 ameliorates the resolution of the inflammatory process triggered by LPS. Multiplex assay of cytokines 4 h (A) and 24 h (B) after the proinflammatory stimuli (n = 5). […] Compound 1 reverts brain microgliosis triggered by LPS. Representative images of brain microglia 4 h and 24 h after the proinflammatory stimuli (A). Mean intensity of IBA-1 per cell 4 h (n = 10) and 24 h (n = 7, except n = 6 LPS + Compound 1) after LPS injection (B). […] Sub-chronical Compound 1 administration improves behavioural parameters in LPS treated mice. Compound 1 (20 mg·kg^-1) was injected once a day via i.p. four days before the i.p. LPS (0.5 mg·kg^-1) administration, thereafter behavioural tests were conducted. (A) Mice weight change (T0 and T24: saline n = 17, LPS n = 17, LPS + Compound 1 n = 19, T4 and T8 saline n = 8, LPS n = 7, LPS + Compound 1 n = 8). (B) Locomotion activity measured by line crossings of an imaginary grid. (C) Scheme of NOR test. (D) Discrimination index (DI) of the mice studied: saline (n = 16), LPS (n = 9) and LPS + Compound 1 (n = 13). […] Compound 1 reduces hyperphosphorylated tau species and tau seeding in vitro. Compound 1 reduces hyperphosphorylated tau levels (AT8) in primary neuronal cultures of mice after 8 days of AVV-hTauP301L treatment. Dimethyl fumarate was used as a positive control (DMF). (A) Representative images, AT8 is shown in green and Map2, marker of neurons, is shown in white. […] Compound 1 reduced tau seeding in HEK-293 tau FRET biosensor measured by flow cytometer (C). Tg4510 mouse brain homogenate was used as aggregant stimuli. […] Data represent mean ± SEM. • Figure 7. Compound 1 reduces hyperphosphorylated tau species in adult mice with hTauP301L tauopathy after 35 days oral administration (50 mg/kg/day). (A). Representative images of hyperphosphorylated tau intensity measured by AT8 and AT180 antibodies in three different regions of the hippocampus (GD, CA3 and CA1) (n = 11-12). (B) Quantification AT8 intensity, normalized to CA3 intensity of Sham animals. (C) Quantification of AT180 intensity, normalized to CA3 intensity of Sham animals (n = 9-12). […] Compound 1 reduces insoluble forms of hyperphosphorylated tau species in adult mice with hTauP301L tauopathy after 35 days oral administration (50 mg/kg/day). (A). Representative images of WB against AT8 and (B) AT180 antibodies of sarkosyl solule and insoluble protein species. Quantification of sarkosyl soluble (n = 10) (C) and insoluble species (D) using AT8 antibody (n = 10). Quantification of sarkosyl soluble (n = 10) (E) and insoluble species (F) using AT180 antibody (n = 10). […] Compound 1 prevents cognitive decline in spatial memory behavioural paradigms in adult mice with hTauP301L tauopathy after 35 days oral administration (20 mg/kg or 50 mg/kg/day). (A) Representation of T-maze alternation test and (B) Object Location test (OLT). (C) Average percentage of success in seven independent attempts (n = 14-19). (D) Discrimination index in the OLT assay (AAV-eGFP, n = 15; AAV-hTau, n = 10; AAV-hTau + Compound 1 at 20 mg/kg, n = 5; AAV-hTau + Compound 1 at 50 mg/kg, n = 8). […] Compound 1 reduces hyperphosphorylated tau species and improves cognitive behaviour in aged (16-18 months old) mice with hTauP301L tauopathy after 35 days oral administration (50 mg/kg/day). (A). Representative images of hyperphosphorylated tau intensity measured by AT8 and AT180 antibodies in three different regions of the hippocampus (GD, CA3 and CA1) (n = 12). […]

[2] = LPS in vivo model: sickness behaviour (body weight, locomotion, novel object recognition); set-up: species or system mouse; conditions: 20 mg·kg^-1 i.p.
Protocol: The LPS in vivo model was induced, sickness behaviour evaluated (locomotion test and novel object recognition test) and cytokines measured by qPCR as described by [Fernández-Mendivil, Cristina et al. "Protective role of microglial HO-1 blockade in aging: Implication of iron metabolism." Redox biology vol. 38 (2021): 101789. doi:10.1016/j.redox.2020.101789]. The panel of mouse cytokines, chemokines, and growth factors were measured by Luminex xMAP technology for multiplexed quantification at Evetechnologies (https://www.evetechnologies.com/)
Example 2.3.1. Treatment with Compound 1 reduces LPS-induced cytokine expression and release in mouse brain. Mice were treated i.p. with a daily dose of 20 mg·kg^-1 of Compound 1 for 4 consecutive days. On the last day, LPS (0.5 mg·kg^-1) was injected i.p. one h after the compound. Thereafter, behavioural, and biochemical outcomes were analysed at different time points.
Example 2.3.3. Treatment with Compound 1 reduces LPS-induced sickness behaviour. Peripheral administration of LPS produces neuroinflammation and induces a "sickness behaviour" in mice that is characterized by body weight loss, reduction of the locomotor activity and a cognitive decline.

[3] = tested on: HEK-293 FRET biosensor containing tau repeating domains; experiment: Tau seeding assay in HEK-293 tau FRET biosensor cells; type: cell-based; conditions: Tg4510 mouse brain homogenate as aggregant stimulus; increasing concentrations
Protocol: (§1) • Figure 1. Compound 1 reduces the inflammatory response against LPS in vitro. (A) Nitric oxide (NO) production in BV2 cells detected by DAF 24 h after LPS exposure and normalized by cell viability measured by MTT (n = 9). (B) qRT-PCR of TNFα (n = 9) in BV2 cells after 24 h LPS exposure. Sulforaphane (Sfn) was used as a positive control. […] Compound 1 decreases the inflammatory process 4 and 24 hours after LPS administration in vivo. Compound 1 (20 mg·kg^-1) daily was injected i.p. four days before the i.p. LPS (0.5 mg·kg^-1) administration. […] Compound 1 ameliorates the resolution of the inflammatory process triggered by LPS. […] (B) Locomotion activity measured by line crossings of an imaginary grid. […] Compound 1 reduced tau seeding in HEK-293 tau FRET biosensor measured by flow cytometer (C). […] Representative images of hyperphosphorylated tau intensity measured by AT8 and AT180 antibodies in three different regions of the hippocampus (GD, CA3 and CA1) (n = 11-12). (B) Quantification AT8 intensity, normalized to CA3 intensity of Sham animals. (C) Quantification of AT180 intensity, normalized to CA3 intensity of Sham animals (n = 9-12). […] Quantification of sarkosyl soluble (n = 10) (C) and insoluble species (D) using AT8 antibody (n = 10). Quantification of sarkosyl soluble (n = 10) (E) and insoluble species (F) using AT180 antibody (n = 10). […]

[4] = tested on: proinflammatory cytokines; experiment: LPS in vivo model: brain cytokine mRNAs by qRT-PCR; set-up: species or system mouse; conditions: 20 mg·kg^-1 i.p. daily for 4 days; 4 h and 24 h after LPS 0.5 mg·kg^-1 i.p.
Protocol: as §1

Structure (SMILES): COc1ccc2c(c1)CC(c1c[nH]c3ccc(OC)cc13)N2 (centres unmarked) [Compound 1, 5-Methoxy-3-(5-methoxyindolin-2-yl)-1H-indole]
- IP10 ([1]; 4 and 24 h after LPS): decreased significantly
- KC ([1]; 4 and 24 h after LPS): decreased significantly
- MIP2 ([1]; 4 and 24 h after LPS): decreased significantly
- RANTES ([1]; 4 and 24 h after LPS): decreased significantly
- IL-6 in brain ([1]; 4 h after LPS): marked reduction
- IL-7 in brain ([1]; 4 h after LPS): marked reduction
- MCP-1 ([1]; 4 h after LPS): decreased significantly
- Additional cytokines (Figure 3) ([1]; 4 h and 24 h after LPS, most of them): decreased with compound treatment
- IL-6 in brain ([1]; 24 h after LPS): restored to basal conditions
- IL-7 in brain ([1]; 24 h after LPS): restored to basal conditions
- granulocyte-colony stimulating factor (G-CSF) brain levels ([1]; after LPS): significantly reduced
- Locomotion, line crossings of an imaginary grid ([2]; 4 and 8 h after LPS exposure, values similar to saline animals): improved
- body weight loss ([2]; compared to LPS-vehicle treated animals): less reduction of the body weight loss
- cognitive decline (NOR test, discrimination index) ([2]; compared to vehicle-LPS treated animals): did not show cognitive decline
- tau seeding (integrated FRET density) [3]: reduce tau seeding ability following a concentration dependent effect
- IL-1β mRNA in brain [4]: reduced
- TNFα mRNA in brain [4]: reduced
